# Measured values reported in PMC11212260, “Next-generation neuropeptide Y receptor small-molecule agonists inhibit mosquito-biting behavior” (Parasites & Vectors, 2024).
# “And” between values parts separate entries of the source, which are not always exact repeats. Identical values can stand only once. Like-named read-outs stand apart in the source and are kept apart here.
# Legend:
# Ae. aegypti NPYLR7 = Ae. aegypti NPYLR7 (Aedes aegypti, UniProt U5N1H5); assay: In vitro calcium (GCaMP6s) FLIPR assay in HEK293T cells transfected with NPYLR7; type: cell-based; conditions: for RFU: assay date 1/11/20 plate 1, duplicate wells, listed as TDI-012631-CL-1; for in vitro potency (in words): relative to reference compound TDI-012631
# Chain of Ae. aegypti NPYLR7 (U5N1H5 entry or part of it): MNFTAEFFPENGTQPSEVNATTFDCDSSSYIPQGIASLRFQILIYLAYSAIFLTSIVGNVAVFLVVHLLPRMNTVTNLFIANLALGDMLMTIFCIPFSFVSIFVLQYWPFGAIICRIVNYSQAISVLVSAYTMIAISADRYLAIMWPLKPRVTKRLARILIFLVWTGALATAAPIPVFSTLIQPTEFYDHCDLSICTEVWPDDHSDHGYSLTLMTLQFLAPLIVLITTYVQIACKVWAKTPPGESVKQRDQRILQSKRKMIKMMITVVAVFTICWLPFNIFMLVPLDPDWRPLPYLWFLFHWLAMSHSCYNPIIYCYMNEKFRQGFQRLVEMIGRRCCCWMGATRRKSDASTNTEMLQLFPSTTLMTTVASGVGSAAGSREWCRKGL
# Procedure, shortened: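 HEK293T cells transiently co-transfected with GCaMP6s, mouse Gqα15 and NPYLR7; FLIPR imaging every second for 5 min, compound (0–100 μM) added after 30 s baseline in HBSS + 20 mM HEPES. Response normalized to buffer (0%) and 10 μM FMRFa3 (100%); relative EC50 by four-parameter fit, replicates averaged.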
# [1] = tested on: Aedes aegypti (Orlando strain) females; assay: Host-seeking screening assay (miniport olfactometer); type: in vivo; conditions: for Attraction (relative to saline): per-compound value of Fig. 3C; for effect on host-seeking (in words): fed at a dose of 1 μM
# Procedure, shortened: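 Fasted Orlando-strain females fed saline meals (400 mM NaHCO3) with 1 mM ATP and test compound at 1 μM final via warmed membrane feeders; lethality counted 24 h post-meal. At 48 h, attraction to human-scented stocking plus 5% CO2 scored over 5 min, normalized to matched saline-fed controls.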
# [2] = Figure 1E Summary, third list (n = 39), read-out: Reported Metric (Summary list)
# [3] = relative EC50, percent effect relative to 10 μM FMRFa3, read-out: EC50
# [4] = fed 1 μM in saline, tested 48 h post-meal
# [5] = EC50 of the individual assay date/plate (assay date), read-out: EC50
# [6] = summary EC50 per compound (mean over assay dates), the unit is taken from the neighbouring EC50 (uM) column, read-out: Reported Metric
smiles,measurement,setting,value
"COc1ccc2c(C)nc(NC(=N)N)nc2c1 [TDI-012631, reference compound]",RFU,Ae. aegypti NPYLR7; 0.00169350878084303uM,71 RFU and 55 RFU
same,RFU,Ae. aegypti NPYLR7; 0.00508052634252909uM,71 RFU and 78 RFU
same,RFU,Ae. aegypti NPYLR7; 0.0152415790275873uM,77 RFU and 71 RFU
same,RFU,Ae. aegypti NPYLR7; 0.0457247370827618uM,80 RFU and 73 RFU
same,RFU,Ae. aegypti NPYLR7; 0.137174211248285uM,64 RFU and 79 RFU
same,RFU,Ae. aegypti NPYLR7; 0.411522633744856uM,90 RFU and 78 RFU
same,RFU,Ae. aegypti NPYLR7; 3.7037037037037uM,273 RFU and 186 RFU
same,RFU,Ae. aegypti NPYLR7; 11.1111111111111 uM,265 RFU and 324 RFU
same,RFU,Ae. aegypti NPYLR7; 33.333333 uM,286 RFU and 301 RFU
same,RFU,Ae. aegypti NPYLR7; 100 uM,368 RFU and 331 RFU
same,EC50,Ae. aegypti NPYLR7; [2],4.11 µM
same,EC50,"Ae. aegypti NPYLR7; Figure 1E, EC50 of the single assay date/plate, read-out: EC50",2.75 µM and 1.61 µM and 2.58 µM and 3.45 µM and 2.36 µM and 11.5 µM and 2.22 µM and 6.4 µM
same,EC50,"Ae. aegypti NPYLR7; Figure 1E, metric reported per compound, repeated on every replicate line, read-out: Reported Metric (EC50)",4.11 µM
same,response at 0.0051(uM),"Ae. aegypti NPYLR7; compound 0.0051 uM, single replicate well",-0.02145
same,response at 0.0152(uM),"Ae. aegypti NPYLR7; compound 0.0152 uM, single replicate well",3.235
same,response at 0.4115(uM),"Ae. aegypti NPYLR7; compound 0.4115 uM, single replicate well",-1.786
same,EC50,Ae. aegypti NPYLR7; [3],4.11 µM
same,EC50,"Ae. aegypti NPYLR7; sheet Figure 3C, unit inferred, read-out: EC50",4.11 µM
same,Host-seeking relative to saline (test compound % host-seeking/average matched saline % host-seeking),"[1]; fed 1 μM in saline, tested 48 h post-meal, individual replicates, listed as TDI-02631",1.06 and 1
same,Attraction (relative to saline),[1]; [4],0.99
same,effect on host-seeking (in words),[1],not active
CNc1nc(NC(=N)N)nc2cc(OCc3ccccc3)c(OC)cc12 [TDI-014184],EC50,Ae. aegypti NPYLR7; [5],0.49 µM
same,EC50,Ae. aegypti NPYLR7; [2],0.49 µM
same,activation at 0.0457 µM,"Ae. aegypti NPYLR7; HEK-293T, 0.0457 uM, single replicate, normalised response",8.6%
same,activation at 11.1111 µM,"Ae. aegypti NPYLR7; HEK-293T, 11.1111 uM, single replicate, normalised response",91.4%
same,EC50,Ae. aegypti NPYLR7; [3],0.49 µM
same,in vitro potency (in words),Ae. aegypti NPYLR7,significantly improved in vitro potency
same,EC50,Ae. aegypti NPYLR7; [6],0.49 µM
same,Attraction (relative to saline),[1]; [4],0.6
Cc1nc(NC(=N)N)nc2cc(N3CCc4ccccc4C3)ccc12 [TDI-014186],EC50,Ae. aegypti NPYLR7; [5],35.5 µM
same,EC50,"Ae. aegypti NPYLR7; Figure 1E Summary, second list (n = 48), read-out: Reported Metric (Summary list)",35.5 µM
same,EC50,Ae. aegypti NPYLR7; [3],35.5 µM
same,in vitro potency (in words),Ae. aegypti NPYLR7,lower in vitro potency
same,EC50,Ae. aegypti NPYLR7; [6],35.5 µM
same,Attraction (relative to saline),[1]; [4],0.685
same,effect on host-seeking (in words),[1],reduced host-seeking behavior
